Measured values from PubChem BioAssay (NCI).
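Exposure lasted 48 hours, with cells grown in 96-well plates and compounds tested at five concentrations. TGI: total growth inhibition.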

Columns and labels:
Assay in all cases: NCI-60 cell line screen, 48 h
[1] = test system: SN12C renal
[2] = test system: SK-OV-3 ovarian
[3] = test system: 786-0 renal
[4] = test system: SK-MEL-28 melanoma
[5] = test system: NCI-H522 lung
[6] = test system: DLD-1 colon
[7] = test system: UO-31 renal
[8] = test system: CCRF-CEM leukemia
[9] = test system: DMS 114 small cell lung
[10] = test system: HOP-62 NSCLC
[11] = test system: TK-10 renal
[12] = test system: M14 melanoma
[13] = test system: RPMI-8226 leukemia
[14] = test system: RXF 393 renal
[15] = test system: A549 NSCLC
[16] = test system: OVCAR-5 ovarian
[17] = test system: U251 CNS
[18] = test system: SK-MEL-2 melanoma
[19] = test system: SNB-75 CNS
[20] = test system: SNB-19 CNS
[21] = test system: LOX IMVI melanoma
[22] = test system: OVCAR-8 ovarian
[23] = test system: XF 498 CNS
[24] = test system: M19-MEL melanoma
[25] = test system: HCT-116 colon
[26] = test system: K-562 leukemia
[27] = test system: SNB-78 CNS
[28] = test system: HT29 colon
[29] = test system: KM20L2 colon
[30] = test system: SW-620 colon
[31] = test system: UACC-62 melanoma
[32] = test system: IGROV1 ovarian
[33] = test system: COLO 205 colon
[34] = test system: RXF-631 renal
[35] = test system: OVCAR-4 ovarian
[36] = test system: SF-268 CNS
[37] = test system: A498 renal
[38] = test system: CAKI-1 renal
[39] = test system: UACC-257 melanoma
[40] = test system: NCI-H23 lung
[41] = test system: ACHN renal
[42] = test system: LXFL 529 NSCLC
[43] = test system: DMS 273 small cell lung
[44] = test system: HCC-2998 colon
[45] = test system: SK-MEL-5 melanoma
[46] = test system: MALME-3M melanoma
[47] = test system: SF-539 CNS
[48] = test system: EKVX NSCLC
[49] = test system: HOP-18 NSCLC
[50] = test system: HCT-15 colon
[51] = test system: NCI-H460 lung
[52] = test system: MOLT-4 leukemia
[53] = test system: OVCAR-3 ovarian
[54] = test system: HL-60(TB) leukemia
[55] = test system: SR leukemia
[56] = test system: HOP-92 NSCLC
[57] = test system: SF-295 CNS
[58] = test system: KM12 colon
[59] = test system: NCI-H226 lung

COc1ccc2oc3c(OC)c(OC)c(OC)cc3c(=O)c2c1
TGI [1]: > 100 µM | TGI [2]: > 100 µM | TGI [3]: > 100 µM | TGI [4]: > 100 µM | TGI [5]: > 100 µM | TGI [6]: > 100 µM | TGI [7]: > 100 µM | TGI [8]: > 100 µM | TGI [9]: > 100 µM | TGI [10]: > 100 µM | TGI [11]: > 100 µM | TGI [12]: > 100 µM | TGI [13]: > 100 µM | TGI [14]: 84.4 µM | TGI [15]: > 100 µM | TGI [16]: > 100 µM | TGI [17]: > 100 µM | TGI [18]: > 100 µM | TGI [19]: 84.5 µM | TGI [20]: > 100 µM | TGI [21]: > 100 µM | TGI [22]: > 100 µM | TGI [23]: > 100 µM | TGI [24]: > 100 µM | TGI [25]: > 100 µM | TGI [26]: > 100 µM | TGI [27]: > 100 µM | TGI [28]: > 100 µM | TGI [29]: > 100 µM | TGI [30]: > 100 µM | TGI [31]: > 100 µM | TGI [32]: > 100 µM | TGI [33]: > 100 µM | TGI [34]: > 100 µM | TGI [35]: > 100 µM | TGI [36]: > 100 µM | TGI [37]: > 100 µM | TGI [38]: > 100 µM | TGI [39]: > 100 µM | TGI [40]: > 100 µM | TGI [41]: > 100 µM | TGI [42]: > 100 µM | TGI [43]: > 100 µM | TGI [44]: > 100 µM | TGI [45]: > 100 µM | TGI [46]: > 100 µM | TGI [47]: > 100 µM | TGI [48]: > 100 µM | TGI [49]: > 100 µM | TGI [50]: > 100 µM | TGI [51]: > 100 µM | TGI [52]: > 100 µM

COc1ccc(Oc2ccccc2N)cc1
TGI [1]: > 100 µM | TGI [2]: > 100 µM | TGI [53]: > 100 µM | TGI [4]: 95.1 µM | TGI [6]: > 100 µM | TGI [7]: > 100 µM | TGI [8]: > 100 µM | TGI [9]: > 100 µM | TGI [10]: > 100 µM | TGI [12]: > 100 µM | TGI [13]: > 100 µM | TGI [14]: 98.2 µM | TGI [54]: > 100 µM | TGI [15]: > 100 µM | TGI [16]: > 100 µM | TGI [17]: 38.6 µM | TGI [18]: > 100 µM | TGI [19]: > 100 µM | TGI [21]: > 100 µM | TGI [22]: > 100 µM | TGI [24]: > 100 µM | TGI [25]: > 100 µM | TGI [26]: > 100 µM | TGI [55]: > 100 µM | TGI [27]: > 100 µM | TGI [28]: > 100 µM | TGI [29]: > 100 µM | TGI [56]: > 100 µM | TGI [30]: > 100 µM | TGI [31]: > 100 µM | TGI [32]: > 100 µM | TGI [33]: 35.4 µM | TGI [34]: > 100 µM | TGI [35]: > 100 µM | TGI [36]: > 100 µM | TGI [37]: > 100 µM | TGI [39]: > 100 µM | TGI [40]: > 100 µM | TGI [41]: > 100 µM | TGI [42]: > 100 µM | TGI [43]: > 100 µM | TGI [44]: 57.1 µM | TGI [45]: 33.6 µM | TGI [46]: > 100 µM | TGI [47]: 57.3 µM | TGI [57]: > 100 µM | TGI [58]: > 100 µM | TGI [59]: > 100 µM | TGI [48]: > 100 µM | TGI [49]: > 100 µM | TGI [50]: > 100 µM | TGI [51]: > 100 µM | TGI [52]: > 100 µM
